Assay results taken from ChEMBL document CHEMBL2046294, “Lipo-γ-AApeptides as a new class of potent and broad-spectrum antimicrobial agents” (J Med Chem, 2012).
Converted amounts (≈) assume the structure as drawn. The source made the active and inactive calls. The rule behind the calls is not given here.

Assays:
Bacillus subtilis [1] = assay: Antibacterial activity against Bacillus subtilis BR151 after 24 hrs by broth micro-dilution method; type: functional; conditions: BR151, 24 h
Enterococcus faecalis = assay: Antibacterial activity against vancomycin-resistant Enterococcus faecalis ATCC 700802 after 24 hrs by broth micro-dilution method; type: functional; conditions: ATCC 700802, 24 h
Pseudomonas aeruginosa = assay: Antibacterial activity against multidrug-resistant Pseudomonas aeruginosa ATCC 27853 after 24 hrs by broth micro-dilution method; type: functional; conditions: ATCC 27853, 24 h
[2] = system: Staphylococcus epidermidis; assay: Antibacterial activity against multidrug-resistant Staphylococcus epidermidis RP62A after 24 hrs by broth micro-dilution method; type: functional
Staphylococcus aureus [3] = assay: Antibacterial activity against methicillin-resistant Staphylococcus aureus ATCC 33592 after 24 hrs by broth micro-dilution method; type: functional; conditions: ATCC 33592, 24 h
Candida albicans = assay: Antifungal activity against Candida albicans ATCC 10231 after 48 hrs by broth micro-dilution method; type: functional; conditions: ATCC 10231, 48 h
[4] = Toxicity in human RBC assessed as hemolysis after 1 hr; type: cell-based, Erythrocyte; conditions: for HC10: erythrocyte, 1 h; for HC50 at 1 h: red blood cells
Escherichia coli [5] = assay: Antibacterial activity against Escherichia coli JM109 after 24 hrs by broth micro-dilution method; type: functional; conditions: JM109, 24 h
Klebsiella pneumoniae = assay: Antibacterial activity against Klebsiella pneumoniae ATCC 13383 after 24 hrs by broth micro-dilution method; type: functional; conditions: ATCC 13383, 24 h
Staphylococcus aureus [6] = assay: Antibacterial activity against methicillin-resistant Staphylococcus aureus ATCC 33592 assessed as lipid membrane depolarization after 10 mins by DiSC3-5 staining-based fluorescence analysis; type: functional, organism-based
[7] = Selectivity ratio of HC50 for human RBC to MIC for methicillin-resistant Staphylococcus aureus ATCC 33592; type: functional
Staphylococcus aureus [8] = assay: Resistance ratio, MIC for methicillin-resistant Staphylococcus aureus ATCC 33592 grown on half-MIC concentration for 3 passages to MIC for methicillin-resistant Staphylococcus aureus ATCC 33592 after 24 hrs; type: functional
Bacillus subtilis [9] = assay: Antibacterial activity against Bacillus subtilis BR151 assessed as loss membrane potential at 10 ug/ml; type: functional, organism-based
Escherichia coli [10] = assay: Antibacterial activity against Escherichia coli JM109 assessed as membrane disruption at 10 ug/ml after 2 hrs by DAPI staining-based fluorescence microscopic analysis; type: functional, organism-based
Bacillus subtilis [11] = assay: Antibacterial activity against Bacillus subtilis BR151 assessed as membrane disruption at 10 ug/ml after 2 hrs by DAPI staining-based fluorescence microscopic analysis; type: functional, organism-based
Bacillus subtilis [12] = assay: Antibacterial activity against Bacillus subtilis BR151 assessed as membrane disruption at 10 ug/ml after 2 hrs by propidium iodide staining-based fluorescence microscopic analysis; type: functional, organism-based
Escherichia coli [13] = assay: Antibacterial activity against Escherichia coli JM109 assessed as membrane disruption at 10 ug/ml after 2 hrs by propidium iodide staining-based fluorescence microscopic analysis; type: functional, organism-based
Escherichia coli [14] = assay: Antibacterial activity against Escherichia coli JM109 assessed as loss membrane potential at 10 ug/ml; type: functional, organism-based

Row | SMILES | MIC (Bacillus subtilis [1]) | MIC (Enterococcus faecalis) | MIC (Pseudomonas aeruginosa) | MIC [2] | MIC (Staphylococcus aureus [3]) | MIC (Candida albicans) | HC10 [4] | HC50 at 1 h [4] | MIC (Escherichia coli [5]) | MIC (Klebsiella pneumoniae) | Activity (Staphylococcus aureus [6]) | Ratio [7] | Ratio (Staphylococcus aureus [8]) | Activity (Bacillus subtilis [9]) | Activity (Escherichia coli [10]) | Activity (Bacillus subtilis [11]) | Activity (Bacillus subtilis [12]) | Activity (Escherichia coli [13]) | Activity (Escherichia coli [14])
1 | CCCCCCCCCCCCCCCC(=O)N[C@@H](C)CN(CC(=O)N[C@@H](C)CN(CC(=O)N[C@@H](CCC(=O)O)CN(CC(=O)N[C@@H](CCC(=O)O)CN(CC(=O)N[C@@H](CCC(=O)O)CN(CC(N)=O)C(=O)CC(=O)O)C(=O)CC(=O)O)C(=O)CC(=O)O)C(C)=O)C(C)=O | > 100 µg/mL | > 100 µg/mL | > 100 µg/mL | > 100 µg/mL | > 100 µg/mL | > 100 µg/mL | 250 µg/mL | > 500 µg/mL | > 100 µg/mL | > 100 µg/mL |  |  |  |  |  |  |  |  | 
2 | CCCCCCCCCCCCCCCC(=O)N[C@@H](C)CN(CC(=O)N[C@@H](C)CN(CC(=O)N[C@@H](CCCCN)CN(CC(=O)N[C@@H](CCCCN)CN(CC(=O)N[C@@H](CCCCN)CN(CC(N)=O)C(=O)CCCN)C(=O)CCCN)C(=O)CCCN)C(C)=O)C(C)=O | 2.5 µg/mL (≈ 1.87 µM) | 10 µg/mL (≈ 7.48 µM) | 15 µg/mL (≈ 11.2 µM) | 10 µg/mL (≈ 7.48 µM) | 10 µg/mL (≈ 7.48 µM) | 7.5 µg/mL (≈ 5.61 µM) | 200 µg/mL | > 500 µg/mL | 2.5 µg/mL (≈ 1.87 µM) | 15 µg/mL (≈ 11.2 µM) | Active | > 50 |  |  |  |  |  |  | 
3 | CCn1cc(C(=O)O)c(=O)c2cc(F)c(N3CCNCC3)cc21 [NORFLOXACIN] |  |  |  |  |  |  |  |  |  |  |  |  | >20 |  |  |  |  |  | 
4 | CCCCCCCC/C=C\CCCCCCCC(=O)N[C@@H](CCCCN)CN(CC(=O)N[C@@H](CCCCN)CN(CC(N)=O)C(=O)CCCN)C(=O)CCCN | 2.5 µg/mL (≈ 3.15 µM) | 5 µg/mL (≈ 6.3 µM) | 3 µg/mL (≈ 3.78 µM) | 4 µg/mL (≈ 5.04 µM) | 5 µg/mL (≈ 6.3 µM) | 2 µg/mL (≈ 2.52 µM) | 250 µg/mL | > 500 µg/mL | 10 µg/mL (≈ 12.6 µM) | 15 µg/mL (≈ 18.9 µM) | Active | > 100 |  |  |  |  |  |  | 
5 | CCCCCCCC/C=C\CCCCCCCC(=O)N[C@@H](C)CN(CC(=O)N[C@@H](C)CN(CC(=O)N[C@@H](CC(C)C)CN(CC(=O)N[C@@H](CC(C)C)CN(CC(=O)N[C@@H](CC(C)C)CN(CC(N)=O)C(=O)CCCN)C(=O)CCCN)C(=O)CCCN)C(C)=O)C(C)=O | 3 µg/mL (≈ 2.28 µM) | 4 µg/mL (≈ 3.04 µM) | 3 µg/mL (≈ 2.28 µM) | 3 µg/mL (≈ 2.28 µM) | 3 µg/mL (≈ 2.28 µM) | 3 µg/mL (≈ 2.28 µM) | 100 µg/mL | > 500 µg/mL | 3 µg/mL (≈ 2.28 µM) | 3 µg/mL (≈ 2.28 µM) | Active | > 167 |  | Active | Active | Active | Active | Active | Active
6 | CCCCCCCC/C=C\CCCCCCCC(=O)N[C@@H](CCCCN)CN(CC(N)=O)C(=O)CCCN | 2 µg/mL (≈ 3.72 µM) | 2.5 µg/mL (≈ 4.65 µM) | 3 µg/mL (≈ 5.58 µM) | 2 µg/mL (≈ 3.72 µM) | 4 µg/mL (≈ 7.44 µM) | 2 µg/mL (≈ 3.72 µM) | 40 µg/mL | 100 µg/mL | 2.5 µg/mL (≈ 4.65 µM) | 35 µg/mL (≈ 65.1 µM) | Active | 25 |  |  |  |  |  |  | 
7 | CCCCCCCCCCCCCCCC(=O)N[C@@H](CCCCN)CN(CC(=O)N[C@@H](CCCCN)CN(CC(=O)N[C@@H](CCCCN)CN(CC(N)=O)C(=O)CCCN)C(=O)CCCN)C(=O)CCCN | 1.5 µg/mL (≈ 1.46 µM) | 10 µg/mL (≈ 9.76 µM) | 15 µg/mL (≈ 14.6 µM) | 2 µg/mL (≈ 1.95 µM) | 5 µg/mL (≈ 4.88 µM) | 2 µg/mL (≈ 1.95 µM) | 300 µg/mL | > 500 µg/mL | 20 µg/mL (≈ 19.5 µM) | > 50 µg/mL | Active | > 100 |  |  |  |  |  |  | 
8 | CC(C)C[C@@H](CN(CC(=O)N[C@@H](CCCCN)CN(CC(N)=O)C(=O)CCc1ccccc1)C(=O)CCc1ccccc1)NC(=O)CN(C[C@H](CCCCN)NC(=O)CN(C[C@H](CCCCN)NC(=O)CN(C[C@H](CC(C)C)NC(=O)CN(C[C@H](CCCCN)NC(=O)CN(C[C@@H](N)CCCCN)C(=O)CCc1ccccc1)C(=O)CCc1ccccc1)C(=O)CCc1ccccc1)C(=O)CCc1ccccc1)C(=O)CCc1ccccc1 | 2 µg/mL (≈ 0.947 µM) | 5 µg/mL (≈ 2.37 µM) | > 50 µg/mL | 5 µg/mL (≈ 2.37 µM) | 5 µg/mL (≈ 2.37 µM) | 8 µg/mL (≈ 3.79 µM) | 75 µg/mL | 300 µg/mL | 3 µg/mL (≈ 1.42 µM) | 5 µg/mL (≈ 2.37 µM) |  | 60 |  |  |  |  |  |  | 
